In US20040224995A1 (University of North Texas Health Science Center at Fort …, priority 2003, published 2004):
pEC50: −log10 of the molar value.

Experiments:
[1] = test system: PPARγ; details: Kliewer et al., 1995; cited from earlier work
[2] = test system: HT-22 cells; experiment: HT-22 cell viability during BSO exposure; assay type: cell-based, mouse
Procedure: (§1) The in vitro model used for oxidative cell death was based upon glutamate, hydrogen peroxide, and buthionine sulfoximine (“BSO”) administration to HT-22 mouse hippocampal, C6 rat glioma, and RGC-5 retinal ganglion cell lines. The ease that the above cell lines are cultured is well known in the art of cell culture. Additionally, these cell lines are suitable for screening a various number of compounds described in the present invention.
(§2) Although not wanting to be bound by theory, the toxicity of glutamate in HT-22 (32) and C6 glioma (33) cell lines is mediated through oxidative stress. HT-22 cells lack ionotropic N-methyl-D-aspartate (“NMDA”) glutamate receptors, and the glutamate-induced cell death appears to occur via a slow onset oxidative stress (32,34,35). Glutamate blocks cystine uptake by inhibiting the glutamate/cystine antiporter in both HT-22 (32) and C6 glioma (33) cell lines. […] In some of the experiments, the viability of cells was determined using 2.5 μM calcein AM assay in phosphate-buffered saline (PBS 1×). After 25 minutes of incubation, live cells were distinguished by the presence of intracellular esterase activity, which cleaves the calcein AM dye, producing a bright green fluorescence, as shown in FIG. 22. Viability was measured in Relative Fluorescent Units (“RFU”), and expressed as percentage of vehicle-treated control values. […]

[3] = test system: RGC-5 cells; experiment: RGC-5 cell viability during BSO exposure; assay type: cell-based
Procedure: as §1, §2

Row | SMILES | pEC50 [1] | protection against BSO [2] | protection against BSO [3]
1 | CCCCC/C=C/C=C1/C(=O)C=C[C@@H]1C/C=C\CCCC(=O)O [15d-PGJ2, 15-deoxy-Δ^12,14-PGJ2] | 5.15 | – | –
2 | Cc1c(C)c2c(c(C)c1O)CCC(C)(COc1ccc(CC3SC(=O)NC3=O)cc1)O2 (stereo not drawn) [troglitazone] | – | protected | protected
